Laboratory results as given in patent US4360525A, “Dibenzazepine derivatives, pharmaceutical compositions containing them, and methods of use” (Sandoz Ltd., priority 1979, dated 1982).

How the values were obtained:
[1] = system: sleep/wake cycle; experiment: sleep/wake cycle in the rat (H. Kleinlogel); assay type: in vivo; details: 10 mg/kg p.o.
Experimental: Additionally, the compounds on administration to mice of from about 0.1 to about 10 mg/kg i.p. inhibit the hypermotility induced by 4,α-dimethyl-m-tyramine (H 77/77) in a test carried out according to the principles of J. Buus Lassen, Psychopharmacologia 37, 331-340 (1974). The compounds also increase the sleep phase II in the sleep/wake cycle in the rat carried out according to the principles of H. Kleinlogel et al, European J. Pharmacol. 33, 159-163, 1975, on administration of from […]. Results obtained are e.g. as follows:
Additionally the compounds of the invention are useful as sleep-inducing, sleep-promoting and sleep-prolonging agents, as indicated in standard tests. For example, in one test according to the principles of H. Kleinlogel, European J. Pharmacol. 33, 159-163 (1975) an increase in the sleep phase II and a decrease of the wake phase is observed after administration to rats of from 0.5 to 80 mg/kg p.o. animal body weight of the compounds.

[2] = system: spontaneous motor activity; experiment: inhibition of spontaneous motor activity in mice (Caviezel and Baillod); assay type: in vivo; details: Mus musculus, po
Experimental: In particular, the compounds of the invention are useful as neuroleptic agents in the treatment of e.g. psychotic disturbances such as schizophrenia, as indicated in standard tests, e.g. by an inhibition of spontaneous motor activity in mice on p.o. administration of from about 1 to about 50 mg/kg animal body weight of the compounds in accordance with the principles of Caviezel and Baillod (Pharm. Acta Helv. (1958), 33, 465-484).

| Structure (SMILES) | Sleep phase II % of control [1] | ED50 [2] [mg/kg] |
| --- | --- | --- |
| CN1CCN(C2=Nc3cc(Cl)ccc3Nc3ccccc32)CC1 [Clozapine] | 144 % of control | – |
| CN1CCC(N2Cc3cc(Cl)ccc3Sc3ccccc32)CC1 [Example 1, 2-Chloro-10-(1-methyl-piperidin-4-yl)-10,11-dihydro-dibenzo[b,f][1,4]thiazepine] | 131 % of control | 26 |
| CSc1ccc2c(c1)N(CCC1CCCCN1C)c1ccccc1S2 (stereo not shown) [Thioridazine] | – | 26 |
